Results: patent US20220073532A1, “INHIBITORS OF CGAS ACTIVITY AS THERAPEUTIC AGENTS” (BELLBROOK LABS, LLC, priority 2019, published 2022)
pIC50: −log10 of the molar value. Where two headings read alike, the source gives them in different places.

Molecular target: cGAS (Homo sapiens, UniProt Q8N884)
Assay: cGAS enzymatic assay (FP/TR-FRET detection of cGAMP)
Type: biochemical
Design: The cGAS assay was used to screen 100,000 compounds with full-length human cGAS; 6xHis; made in house
Details: cGAS (30 nM)
Protocol: Some exemplary compounds of the disclosure were tested for inhibition of cGAS (30 nM). The results are provided in Table 1 where “A” indicates an IC50 of less than 100 nM, “B” indicates an IC50 of greater than 100 nM and less than 500 nM, “C” indicates an IC50 of greater than 500 nM and less than 1 μM, “D” indicates an IC50 of greater than 1 μM and less than 10 μM, and “E” indicates an IC50 of greater than 10 μM.
A homogenous cGAS enzymatic assay was developed with fluorescence polarization (FP) and time-resolved Forster resonance energy transfer (TR-FRET) readouts (FIG. 2A-2D). The cGAS assay was used to screen 100,000 compounds with full-length human cGAS (FIG. 2E), resulting in the identification of the novel chemotype of the disclosure, two of which are further developed in a structure-driven hit-to-lead study (Table 3, below). The assay performance was robust, as indicated by respective Z and Z′ values of 0.59 and 0.63 in the screen; compounds with polarization values greater than three SDs from the mean were considered hits; a scatterplot from 10 plates (3,200 compounds) is shown in FIG. 2D.
Biochemical and biophysical analysis: Potency and MOA studies, including Mn^2+ sensitivity, are performed using the cGAS enzymatic assay. Dose response experiments are used to determine IC50 values under basal conditions (5 mM MgCl2, 100 μM ATP/GTP), and with the addition of physiological levels of Mn (0.2 mM) using human and mouse cGAS. Ligand optimization is driven by potency with the human enzyme; potency with mouse cGAS informs selection of an appropriate disease model for efficacy studies. Competition with ATP and GTP is assessed by comparing basal IC50 values to those in the presence of saturating ATP or GTP, and subsequently confirmed by measuring velocity vs. substrate at varying ATP or GTP levels. Inhibitor residence times (1/koff) are used as a key parameter for prioritizing compounds and driving SAR, because a longer residence time often results from an allosteric mechanism, and can also correlate with improved cellular activity. The cGAS enzymatic assay is used with the jump dilution method to measure residence times (inhibitor dissociation rates), as described for kinases using the very similar ADP assay. Biophysical methods, including SPR and TSA, are used as orthologous methods for residence time measurements and kd estimates.

[1] = with Mn^2+, read-out: Inhibition cGAS + Mn^2+

Sequence of cGAS (Q8N884 whole entry): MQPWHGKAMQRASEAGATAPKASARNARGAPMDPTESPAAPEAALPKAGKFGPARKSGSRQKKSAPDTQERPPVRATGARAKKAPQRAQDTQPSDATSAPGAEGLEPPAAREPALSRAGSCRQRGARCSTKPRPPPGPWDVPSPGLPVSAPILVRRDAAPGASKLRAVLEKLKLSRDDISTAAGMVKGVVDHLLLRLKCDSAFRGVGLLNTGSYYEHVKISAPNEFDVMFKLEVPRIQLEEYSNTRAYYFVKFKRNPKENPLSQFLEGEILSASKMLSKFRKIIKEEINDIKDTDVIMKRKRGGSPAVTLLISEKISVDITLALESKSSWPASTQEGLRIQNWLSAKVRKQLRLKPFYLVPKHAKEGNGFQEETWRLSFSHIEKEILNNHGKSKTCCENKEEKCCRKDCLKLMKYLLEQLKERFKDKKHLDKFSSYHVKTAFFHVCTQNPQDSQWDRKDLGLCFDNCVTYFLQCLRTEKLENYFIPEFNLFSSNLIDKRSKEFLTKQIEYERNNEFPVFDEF

Row | pIC50 [1] | pIC50 (read-out: Inhibition cGAS) | Inhibition cGAS | Compound
1 | 5.00 to 6.00 | 6.00 to 6.30 | – | Cc1nc(N2C[C@@H](Nc3n[nH]c4ccccc34)C[C@H]2C(=O)O)c2oc3ccccc3c2n1 [Compound 55, (2S,4S)-4-((1H-indazol-3-yl)amino)-1-(2-methylbenzofuro[3,2-d]pyrimidin-4-yl)pyrrolidine-2-carboxylic acid]
2 | – | 6.00 to 6.30 | – | Cc1nc(N2C[C@@H](NC(=O)Cc3cn[nH]c3)C[C@H]2C(=O)O)c2oc3ccccc3c2n1 [Compound 32, (2S,4S)-4-(2-(1H-pyrazol-4-yl)acetamido)-1-(2-methylbenzofuro[3,2-d]pyrimidin-4-yl)pyrrolidine-2-carboxylic acid]
3 | < 5.00 | < 5.00 | – | O=C(O)[C@@H]1CCCN1c1nc(C2CCCC2)nc2c1oc1ccccc12 [Compound 12, (2-cyclopentylbenzofuro[3,2-d]pyrimidin-4-yl)-L-proline]
4 | – | 6.00 to 6.30 | – | Cc1nc(N2C[C@@H](Nc3n[nH]cc3-c3ccccc3)C[C@H]2C(=O)O)c2oc3ccccc3c2n1 [Compound 41]
5 | – | 6.00 to 6.30 | – | CNC(=O)C[C@H]1C[C@@H](C(=O)O)N(c2nc(C)nc3c2oc2ccccc23)C1 [Compound 35, (2S,4R)-4-(2-(methylamino)-2-oxoethyl)-1-(2-methylbenzofuro[3,2-d]pyrimidin-4-yl)pyrrolidine-2-carboxylic acid]
6 | < 5.00 | 5.00 to 6.00 | – | CO[C@H]1C[C@@H](C(=O)O)N(c2nc(C)nc3c2oc2ccccc23)C1 [Compound 23, (2S,4S)-4-methoxy-1-(2-methylbenzofuro[3,2-d]pyrimidin-4-yl)pyrrolidine-2-carboxylic acid]
7 | < 5.00 | 5.00 to 6.00 | – | O=C(O)[C@@H]1CCCN1c1ncnc2c1oc1ccccc12 [Compound 4, benzofuro[3,2-d]pyrimidin-4-yl-L-proline]
8 | – | – | B, D | Cc1nc(N2C[C@@H](NC(=O)Cc3cc[nH]n3)C[C@H]2C(=O)O)c2oc3ccccc3c2n1 [Compound 31, (2S,4S)-4-(2-(1H-pyrazol-3-yl)acetamido)-1-(2-methylbenzofuro[3,2-d]pyrimidin-4-yl)pyrrolidine-2-carboxylic acid]
9 | < 5.00 | 5.00 to 6.00 | – | O=C(O)[C@@H]1CCCN1c1nc(C2CC2)nc2c1oc1ccccc12 [Compound 8, (2-cyclopropylbenzofuro[3,2-d]pyrimidin-4-yl)-L-proline]
10 | – | 6.00 to 6.30 | – | Cc1nc(N2C[C@@H](NC3CCCNC3)C[C@H]2C(=O)O)c2oc3ccccc3c2n1 (stereo partly drawn) [Compound 37, (2S,4S)-1-(2-methylbenzofuro[3,2-d]pyrimidin-4-yl)-4-(piperidin-3-ylamino)pyrrolidine-2-carboxylic acid]
11 | < 5.00 | 5.00 to 6.00 | – | O=C(O)[C@@H]1CCCN1c1nc(C2CCC2)nc2c1oc1ccccc12 [Compound 11, (2-cyclobutylbenzofuro[3,2-d]pyrimidin-4-yl)-L-proline]
12 | – | 6.00 to 6.30 | – | Cc1nc(N2C[C@@H](NC(=O)Cc3ccnc(C(N)=O)c3)C[C@H]2C(=O)O)c2oc3ccccc3c2n1 [Compound 50, (2S,4S)-4-(2-(2-carbamoylpyridin-4-yl)acetamido)-1-(2-methylbenzofuro[3,2-d]pyrimidin-4-yl)pyrrolidine-2-carboxylic acid]
13 | 5.00 to 6.00 | 6.00 to 6.30 | – | CC(C)(C(=O)N[C@H]1C[C@@H](C(=O)O)N(c2nc(C(F)(F)F)nc3c2oc2ccccc23)C1)c1cn[nH]c1 [Compound 58, (2S,4S)-4-(2-methyl-2-(1H-pyrazol-4-yl)propanamido)-1-(2-(trifluoromethyl)benzofuro[3,2-d]pyrimidin-4-yl)pyrrolidine-2-carboxylic acid]
14 | – | 6.30 to 7.00 | – | Cc1nc(N2C[C@@H](Nc3cc[nH]n3)C[C@H]2C(=O)O)c2oc3ccccc3c2n1 [Compound 26, (2S,4S)-4-((1H-pyrazol-3-yl)amino)-1-(2-methylbenzofuro[3,2-d]pyrimidin-4-yl)pyrrolidine-2-carboxylic acid]
15 | 5.00 to 6.00 | 5.00 to 6.00 | – | CCc1nc(N2CC[C@H]2C(=O)O)c2oc3ccccc3c2n1 [Compound 19, (S)-1-(2-ethylbenzofuro[3,2-d]pyrimidin-4-yl)azetidine-2-carboxylic acid]
16 | < 5.00 | < 5.00 | – | O=C(O)[C@@H]1CCCN1c1nc(C2CCCCC2)nc2c1oc1ccccc12 [Compound 10, (2-cyclohexylbenzofuro[3,2-d]pyrimidin-4-yl)-L-proline]
17 | 5.00 to 6.00 | 6.30 to 7.00 | – | Cc1nc(N2C[C@@H](CC(=O)NC3CCCC3)C[C@H]2C(=O)O)c2oc3ccccc3c2n1 [Compound 51, (2S,4R)-4-(2-(cyclopentylamino)-2-oxoethyl)-1-(2-methylbenzofuro[3,2-d]pyrimidin-4-yl)pyrrolidine-2-carboxylic acid]
18 | < 5.00 | 5.00 to 6.00 | – | O=C(O)CNc1nc(-c2ccccc2)nc2c1oc1ccccc12 [Compound 5, (2-phenylbenzofuro[3,2-d]pyrimidin-4-yl)glycine]
19 | – | 6.00 to 6.30 | – | Cc1nc(N2C[C@@H](NC(=O)Cc3cccnc3)C[C@H]2C(=O)O)c2oc3ccccc3c2n1 [Compound 34, (2S,4S)-1-(2-methylbenzofuro[3,2-d]pyrimidin-4-yl)-4-(2-(pyridin-3-yl)acetamido)pyrrolidine-2-carboxylic acid]
20 | 5.00 to 6.00 | 5.00 to 6.00 | – | Cc1nc(N2C[C@@H](Cc3nnn[nH]3)C[C@H]2CO)c2oc3ccccc3c2n1 [Compound 65, ((2S,4R)-4-((1H-tetrazol-5-yl)methyl)-1-(2-methylbenzofuro[3,2-d]pyrimidin-4-yl)pyrrolidin-2-yl)methanol]
21 | – | 6.00 to 6.30 | – | Cc1nc(N2C[C@@H](CC(N)=O)C[C@H]2C(=O)O)c2oc3ccccc3c2n1 [Compound 45, (2S,4R)-4-(2-amino-2-oxoethyl)-1-(2-methylbenzofuro[3,2-d]pyrimidin-4-yl)pyrrolidine-2-carboxylic acid]
22 | < 5.00 | 5.00 to 6.00 | – | Cc1nc(N[C@@H](CCC(=O)O)C(=O)O)c2oc3ccccc3c2n1 [Compound 24, (2-methylbenzofuro[3,2-d]pyrimidin-4-yl)glutamic acid]
23 | – | 5.00 to 6.00 | – | Cc1nc(N2C[C@@H](NC(=O)c3ncc[nH]3)C[C@H]2C(=O)O)c2oc3ccccc3c2n1 [Compound 47, (2S,4S)-4-(1H-imidazole-2-carboxamido)-1-(2-methylbenzofuro[3,2-d]pyrimidin-4-yl)pyrrolidine-2-carboxylic acid]
24 | 5.00 to 6.00 | 5.00 to 6.00 | – | Cc1nc(N2C[C@@H](Nc3n[nH]cc3-c3ccccn3)C[C@H]2C(=O)O)c2oc3ccccc3c2n1 [Compound 63, (2S,4S)-1-(2-methylbenzofuro[3,2-d]pyrimidin-4-yl)-4-((4-(pyridin-2-yl)-1H-pyrazol-3-yl)amino)pyrrolidine-2-carboxylic acid]
25 | 5.00 to 6.00 | 6.00 to 6.30 | – | Cc1nc(N2C[C@@H](Nc3n[nH]cc3-c3ccccc3)CC2C(=O)O)c2oc3cc(F)ccc3c2n1 (stereo in doubt) [Compound 56, (2R,4S)-1-(7-fluoro-2-methylbenzofuro[3,2-d]pyrimidin-4-yl)-4-((4-phenyl-1H-pyrazol-3-yl)amino)pyrrolidine-2-carboxylic acid]
26 | 5.00 to 6.00 | 6.30 to 7.00 | – | Cc1nc(N2C[C@@H](NC(=O)C(C)(C)c3cn[nH]c3)C[C@H]2C(=O)O)c2oc3cc(F)ccc3c2n1 [Compound 57, (2S,4S)-1-(7-fluoro-2-methylbenzofuro[3,2-d]pyrimidin-4-yl)-4-(2-methyl-2-(1H-pyrazol-4-yl)propanamido)pyrrolidine-2-carboxylic acid]
27 | < 5.00 | 5.00 to 6.00 | – | C[C@H](Nc1nc(-c2ccccc2)nc2c1oc1ccccc12)C(=O)O [Compound 3, (2-phenylbenzofuro[3,2-d]pyrimidin-4-yl)-L-alanine]
28 | 5.00 to 6.00 | 5.00 to 6.00 | – | CCc1nc(N(C)CC(=O)O)c2oc3ccccc3c2n1 [Compound 16, N-(2-ethylbenzofuro[3,2-d]pyrimidin-4-yl)-N-methylglycine]
29 | < 5.00 | 5.00 to 6.00 | – | C[C@H]1C[C@@H](C(=O)O)N(c2nc(-c3ccccc3)nc3c2oc2ccccc23)C1 [Compound 21, (2S,4S)-4-methyl-1-(2-phenylbenzofuro[3,2-d]pyrimidin-4-yl)pyrrolidine-2-carboxylic acid]
30 | < 5.00 | 5.00 to 6.00 | – | CCc1nc(N(C)[C@@H](C)C(=O)O)c2oc3ccccc3c2n1 [Compound 17, N-(2-ethylbenzofuro[3,2-d]pyrimidin-4-yl)-N-methyl-L-alanine]
